Reference: patent US6756368B1, “Use of cobalt chelates for treating or preventing virus infection” (The Trustees of Columbia University in the City of New York, priority 1999, dated 2004)
“Also recorded” adds a separate entry of the source.

Legend:
[1] = system: HSV-1; assay: Accumulation of virus-specified proteins (Western blot); assay type: cell-based, HSV-1 Glasgow strain 17
Description: Protein preparation and western blot analysis were performed as previously described (54). Briefly, at the indicated times the infected cells were collected by centrifugation, resuspended in 1.5×SDS-PAGE sample buffer, and boiled for 10 min. The proteins were separated by SDS-PAGE and electrophorectically transferred to nitrocellulose membranes. Immunodetection of proteins was performed using the following antibodies: ICP0, rabbit polyclonal antibody CLU7 (54); ICP27, rabbit polyclonal antibody CLU38 (54); glycoprotein B (gB), rabbit polyclonal antibody R69 (provided by T. Kristie, National Institute of Allergy and Infectious Diseases) [Zhang, et al. 1991]; and _TIF, rabbit polyclonal antibody anti-VP16 (Clontech Laboratories Inc., Palo Alto, Calif.). The secondary antibodies used were goat anti-rabbit and goat anti-mouse IgG conjugated to horseradish peroxidase (Kirkegaard and Perry Laboratories, Inc., Gaithersburg, Md.). Immunoblots were developed as previously described (55).
Accumulation of Virus-Specified Proteins in the Presence of Drug. Failure to efficiently replicate virus DNA could result from a specific block of replication per se or because virus-specified gene expression is affected by drug. To address this issue cells were infected with HSV-1 at an moi of 5, 50 μg/ml of drug was either added at time 0, 1 hr pi or not added and at intervals post infection the infected cells were harvested and proteins were extracted and assayed for the presence of virus specified polypeptides by Western blot. […] The residual reactivity with ∝-TIF in the sample treated at T=0 results from protein associated with the infecting virions. There is no increase in the accumulation of this protein during the course of infection. It is not possible to exclude the possibility that virus never enters these cells and that the ∝-TIF that is detected results from cell associated virus.

[2] = system: varicella-zoster virus (VZV); assay: VZV infection of Helf cells, immunohistochemistry; assay type: cell-based, VZV strain Ellen
Description: Helf cell monolayers seeded on two chambered slides were infected with 20 μl cell-associated VZV in 1% FBS DMEM in the presence and absence of 50 μg/ml CTC-96. At 28 h postinfection, the slides were washed twice with PBS, fixed in 3.7% formaldehyde in PBS for 30 min at room temperature, and washed again. The infected cells were washed twice with Tris-buffered saline (TBS) and incubated at −20° C. in −20° C. acetone for 10 min. Slides were washed twice with TBS, blocked with 1% goat serum (Sigma, St. Louis, Mo.) in TBS for 20 min at room temperature, and incubated in 200 μl 1:200 rabbit polyclonal anti-ORF 29 in 1% goat serum TBS for 30 min at room temperature. The slides were washed three times with TBS for 5 min each and then incubated with 200 μl 1:200 goat anti-rabbit IgG conjugated horseradish? peroxidase (Kirkegaard and Perry Laboratories Inc.) in 1% goat serum TBS for 30 min at room temperature. Slides were washed three times with TBS for 5 min each. The peroxidase was developed for 5 min using the commercial kit, Alkaline Phosphatase Substrate Kit III (Vector Laboratories Inc., Burlingame, Calif.) according to the manufacturer's directions and then washed several times with water. The slides were viewed with a Leitz Dialux microscope. Endocytosis assay. Vero cells seeded on cover slips were incubated at 37° C. in 5% BCS DMEM with and without 50 μg/ml CTC-96 for various times. […]

[3] = system: 293T cells; assay: Cytotoxic effect of drug on 293T cells; assay type: cell-based; details: 50 μg/ml, no virus
Description: 2 plates of cells were incub. In D2 media +50 μg/ml CTC96 (to see cytotoxic effect of drug on 293T cells)
Plates containing 293T cells +or − 50 μg/lm CTC96 were examined
plates containing 293T cells +or − CTC96 were examined

[4] = system: Hela cells; details: 100 μg/ml, 2 days

Question: Which “accumulation of virus-specified proteins” value ([1]; 50 μg/ml added 1 hr pi / after initiation of infection) does the source give for `CC(/C=C(/C)[O-])=NCCN=C(C)/C=C(/C)[O-].Cc1ncc[nH]1.Cc1ncc[nH]1.[Br-].[Co+3]` [CTC-96] here?
Answer: Its value is “only a small effect; also recorded: little or no effect”.

Question: And the “accumulation of gB (early) and α-TIF (late)” value ([1]; 50 μg/ml added at time 0)?
Answer: Its value is “no measurable accumulation”.

Question: What about the “synthesis of ICP0 and ICP27 (immediate early)” value ([1]; 50 μg/ml added at time 0) of the same compound?
Answer: The value was “little if any synthesis”.

Question: What about the “accumulation of virus proteins of all kinetic classes” value ([1]; 50 μg/ml present from the initiation of infection) of the same compound?
Answer: The value was “prevented the accumulation of gene products from all kinetic classes; also recorded: prevents synthesis of all kinetic classes of virus proteins”.

Question: What about the “cells positive for VZV” value ([2]; Helf cells, in the presence of CTC-96) of the same compound?
Answer: The value was “Very few cells were positive”.

Question: What about the “% Inhibition” value ([2]; VZV (Ellen), Helt, 50 μg/ml of CTC-96, immunohistochemistry) of the same compound?
Answer: Its value is 100%.

Question: And the “cells rounded (CPE)” value ([3]; examined after fixation at 28 h)?
Answer: The value was “at least 50%”.

Question: And the “cells off of plate” value ([3]; examined after staining)?
Answer: Its value is 50%.

Question: And the “remaining cells rounded up (CPE)” value ([3]; examined after staining)?
Answer: The value was 50%.

Question: What about the “state of the HeLa cells” value [4] of the same compound?
Answer: Its value is “dead”.
